Measurements taken from ChEMBL document CHEMBL3045644, “Synthesis anti-inflammatory and anticancer activity evaluation of some pyrazole and oxadiazole derivatives” (2012).

Legend:
Assay type in all cases: functional
Rattus norvegicus = assay: Anti-inflammatory activity in Charles Foster albino Rattus norvegicus (rat) assessed as inhibition of carrageenan-induced paw edema at 50 mg/kg, po […] measured up to 3 hr relative to control
PA-1 = assay: Growth inhibition of Homo sapiens (human) PA1 cells at 10 uM after 48 hr by SRB assay; details: PA-1, 48 h, read-out: GI
HCT-15 = assay: Growth inhibition of Homo sapiens (human) HCT15 cells at 10 uM after 48 hr by SRB assay; details: HCT-15, 48 h, read-out: GI
T47D = assay: Growth inhibition of Homo sapiens (human) T47D cells at 10 uM after 48 hr by SRB assay; details: read-out: GI
NCI-H522 = assay: Growth inhibition of Homo sapiens (human) NCI-H522 cells at 10 uM after 48 hr by SRB assay; details: NCI-H522, 48 h, read-out: GI
HepG2 = assay: Growth inhibition of Homo sapiens (human) HepG2 cells at 10 uM after 48 hr by SRB assay; details: HepG2, 48 h, read-out: GI

Row | Compound | inhibition in vivo at 50 mg/kg (Rattus norvegicus) | inhibition of growth at 10 µM (PA-1) | inhibition of growth at 10 µM (HCT-15) | inhibition of growth at 10 µM (T47D) | inhibition of growth at 10 µM (NCI-H522) | inhibition of growth at 10 µM (HepG2)
1 | CC(C)Cc1ccc(C(C)C(=O)O)cc1 (centres undefined) [IBUPROFEN] | 39% | – | – | – | – | –
2 | CN(C)c1ccc(C2CC(c3ccccn3)=NN2)cc1 (centres undefined) | 18% | 21% | 5% | 3% | 34% | 29%
3 | CN(C)c1ccc(C2CC(c3ccccn3)=NN2c2ccccc2)cc1 (centres undefined) | 35% | 16% | 12% | 41% | 26% | 24%
4 | CN(C)c1ccc(C2CC(c3cccnc3)=NN2c2ccccc2)cc1 (centres undefined) | 34% | 20% | 1% | 33% | 20% | 32%
5 | COc1ccc(OC)c(-c2nc(-c3cnccn3)no2)c1 | 11% | 26% | 7% | 41% | 23% | 17%
6 | COc1ccc(OC)c(-c2nc(-c3ccccn3)no2)c1 | 28% | 25% | 5% | 37% | 23% | 33%
7 | CN(C)c1ccc(C2CC(c3ccncc3)=NN2)cc1 (centres undefined) | 0% | 26% | 3% | 21% | 28% | 29%
8 | COc1cc(-c2nc(-c3cnccn3)no2)ccc1O | 26% | 20% | 1% | 35% | 20% | 20%
9 | O=P1(N(CCCl)CCCl)NCCCO1 (centres undefined) [CYCLOPHOSPHAMIDE ANHYDROUS] | – | 4% | 5% | 18% | 4% | 14%
10 | CN(C)c1ccc(C2CC(c3cccnc3)=NN2)cc1 (centres undefined) | 22% | 36% | 6% | 15% | 25% | 35%
11 | CN(C)c1ccc(C2CC(c3ccncc3)=NN2c2ccccc2)cc1 (centres undefined) | 32% | 24% | 6% | 7% | 32% | 35%
12 | COc1ccc(OC)c(-c2nc(-c3ccncc3)no2)c1 | 35% | 19% | 2% | 25% | 10% | 27%
13 | COc1cc(-c2nc(-c3ccncc3)no2)ccc1O | 14% | 32% | 5% | 34% | 25% | 13%
14 | COc1ccc(OC)c(C2CC(c3cccnc3)=NN2)c1 (centres undefined) | 15% | 31% | 4% | 13% | 40% | 34%
15 | C[C@@H]1C[C@@H]([C@H](O)CC2CC(=O)NC(=O)C2)C(=O)[C@@H](C)C1 [CYCLOHEXIMIDE] | – | 51% | 3% | 9% | 13% | 5%
16 | COc1ccc(OC)c(C2CC(c3cccnc3)=NN2c2ccccc2)c1 (centres undefined) | 24% | 32% | 7% | 22% | 32% | 26%
17 | COc1cc(-c2nc(-c3ccccn3)no2)ccc1O | 24% | 30% | 3% | 33% | 48% | 39%
18 | COc1ccc(OC)c(C2CC(c3ccccn3)=NN2)c1 (centres undefined) | 15% | 25% | 10% | 26% | 28% | 23%
19 | COc1ccc(OC)c(C2CC(c3ccncc3)=NN2)c1 (centres undefined) | 13% | 24% | 28% | 19% | 24% | 34%
20 | COc1ccc(OC)c(C2CC(c3ccccn3)=NN2c2ccccc2)c1 (centres undefined) | 27% | 18% | 9% | 12% | 16% | 20%
21 | O=c1[nH]cc(F)c(=O)[nH]1 [FLUOROURACIL] | – | 10% | 8% | 5% | 24% | 18%
22 | COc1ccc(OC)c(C2CC(c3ccncc3)=NN2c2ccccc2)c1 (centres undefined) | 18% | 31% | 5% | 37% | 29% | 32%
